These results are taken from patent US20140127158A1, “COMBINATION THERAPY FOR HEPATITIS C VIRUS INFECTION” (National Health Research Institute, priority 2012, published 2014).

Like-named read-outs stand apart in the source and are kept apart here. A value given as a limit tells only on which side of the number the result lay.

The test system of data set [1] is HCV genotype 1b replicon (Con1). Nature of the data set: Inhibitory assay for HCV replicons (luciferase), genotype 1b Con1. Type of data set: cell-based, Hepatitis C virus. The protocol: (§1) (2) Cell culture and HCV inhibitors. Huh-7.5 cells and their derivative HCV replicon cell lines were maintained in Dulbecco's modified Eagle's medium (DMEM, Gibco/BRL) that was supplemented with 100 U/mL penicillin-streptomycin (Gibco/BRL), 0.1 mM nonessential amino acid (NEAA, Gibco/BRL) and 10% fetal bovine serum (FBS) heat inactivated at 37° C. in 5% CO2. The HCV replicon cell lines were isolated from colonies as described in Lohman et al., Science 285:110-3 (1999). The culture medium for the replicon cells was additionally supplemented with 0.25 to 0.5 mg/mL of G418, unless specified otherwise. Compound DBPR110 and sofosbuvir were synthesized at the Institute of Biotechnology and Pharmaceutical Research at the National Health Research Institutes in Taiwan. Telaprevir (Lin et al., Antimicrob Agents Chemother, 50:1813-22 (2006)) was purchased from Acme Biosciences (Belmont, Calif.). The compounds were stored at −20° C. as 10 to 500 mM dimethyl sulfoxide (DMSO) stock solutions until the assay. IFN-α was purchased from Calbiochem (La Jolla, Calif.) and stored at −80° C.
(§2) (3) Inhibitory assay for HCV replicons. Cells were seeded at 1×10^4 (high-throughput screening assay) or 1×10^5 (regular assay) cells/well in 96- or 12-well plate, respectively, and incubated for 4 h. The medium was then aspirated and replaced with 0.1 (96-well plate) or 1 (12-well plate) mL of complete medium containing a single compound or combinations of compounds in serial concentration(s). The plates with compounds were incubated for 72 h and then assayed for luciferase expression (Promega). The EC50 of each compound was determined independently and used to determine the range of concentrations used for the combination experiments. All data are presented as the means±standard deviations (SD) from three independent experiments. The selectivity index (SI) was calculated as the ratio of the CC50 to the EC50.
On the technique in general: In antiviral work, replicon cells carry a viral genome segment that copies itself.

The test system of data set [2] is HCV genotype 1b replicon. Nature of the data set: Inhibitor combination study (combination index, CalcuSyn). The settings on record: at the concentrations used in the combination experiments.
In data set [3] the test system is HCV genotype 1b Con1 replicon cells. Nature of the data set: Isolation of resistant replicons, genotype 1b. Type of data set: cell-based, Hepatitis C virus.
Procedure: Selection of resistant replicon cells was performed by growing HCV genotype 1b Con1 and 2a JFH1 replicon cells in medium containing 0.2 or 200 nM and 60 nM or 1 μM of DBPR110, respectively. Medium containing the compound was added to monolayers of HCV1b-neo replicon cells at ˜25% confluence in the presence of 0.2 to 0.4 mg/mL of G418. Replicon cells maintained in the presence of dimethyl sulfoxide (DMSO) were used as a control. After 40 days, total RNA was isolated from both the control replicon cells and homogeneous cell lines containing compound using the TRIzol reagent (Invitrogen, Carlsbad, Calif.) according to the manufacturer's protocol. The RNA was amplified by reverse transcription-PCR (RT-PCR).
To characterize the resistance profile of DBPR110, cell clones resistant to DBPR110 were obtained by culturing HCV genotype 1b replicon cells in the presence of G418 and increasing concentrations of DBPR110 ranging from 50- to 50,000-fold the EC50 value.
In data set [4] the test system is HCV1b reporter replicon pRS-Luc-HCV1bRep. Nature of the data set: Transient HCV1b reporter replicon time course (viral translation vs RNA synthesis). Type of data set: cell-based, Hepatitis C virus. The protocol: (8) RNA transcription and transient replicon assay. The RNA transcripts were synthesized in vitro using ScaI-digested DNAs and the T7 MegaScript transcription kit (Ambion) according to the manufacturer's directions. A transient replicon assay was performed to quantify the compound-mediated inhibition of viral translation (Dears et al., J Virol 79:4599-609 (2005)). RNA transcripts were transfected into Huh-7.5 cells by electroporation, as described previously. See, e.g., Blight et al., J Virol 76:13001-14 (2002). A specific concentration of DBPR110 or the control medium was added to each well, and the cells were assayed to determine the luciferase activity at 4 h and 72 h post-transfection. […] For quantification of the compound-mediated inhibition, the relative luciferase activity derived from the mock-treated cells was set to 100% (Zou et al., Virology 384:242-52 (2009)).
To distinguish inhibition of viral translation from inhibition of RNA synthesis, the reduction rate of reporter gene expression level was monitored as an indicator of the inhibitory activity of DBPR110. […] The luciferase activity was monitored several times over a period of 72 hours posttransfection. […] The luciferase activity was measured at 4, 8, 24, 48, and 72 hours posttransfection.

The test system of data set [5] is HCV genotype 2a replicon (JFH1). Nature of the data set: Inhibitory assay for HCV replicons (luciferase), genotype 2a JFH1. Type of data set: cell-based, Hepatitis C virus. How it is done: as §1, §2
[6] abbreviates: Hepatitis C virus, JFH1 replicon cell line.

With `O=C(N[C@@H](C(=O)N1CCC[C@H]1c1ncc(-c2ccc(-c3ccc(-c4cnc([C@@H]5CCCN5C(=O)[C@H](NC(=O)C5CC5)c5ccccc5)s4)cc3)cc2)s1)c1ccccc1)C1CC1` [DBPR110], the half-maximal effective concentration (EC50) is 3.3 ± 0.8 pM in data set [1] (Hepatitis C virus, HCV-1b replicon cell lines, single agent, combination study system, read-out: EC50); 3.9 pM in data set [1] (Hepatitis C virus, parental genotype 1b replicon cells, read-out: EC50); 3.9 pM in data set [1] (Hepatitis C virus, Genotype 1b, Con1 replicon cell line, read-out: Luciferase activity assay EC50); over 55000 pM in data set [3] (Hepatitis C virus); 229 pM in data set [5] (setting [6]). Further, the EC90 in data set [1] (Hepatitis C virus, Genotype 1b, Con1 replicon cell line, read-out: Luciferase activity assay EC90) is 8.2 ± 1.8 pM; in data set [5] (setting [6]), 465 ± 96.6 pM. Further, the “susceptibility of genotype 1b greater than that of genotype 2a replicon cells” value in data set [1] (genotype 1b vs genotype 2a replicon cells) stood at 74 fold. Moreover, the cytotoxicity entry in data set [2] was “No cytotoxicity was observed”. The “fold more resistant than parental cells” value in data set [3] (DBPR110-resistant cells (DBPR110R), genotype 1b) was “greater than 14,000 fold”. Moreover, the “effect on the Rluc signals” value is “minimal effect” in data set [4] (4 and 8 hours posttransfection (viral translation)); “significantly reduced” in data set [4] (24, 48, and 72 hours posttransfection (RNA replication), P<0.001). In addition, the Selective index in data set [5] (CC50/EC50, JFH1) is >173,130.

In general, EC50 refers to the concentration needed to bring the measured effect to its halfway point. By EC90 is commonly meant the point of the concentration-response curve where the effect stands at 90%.
